{"source": "patent US11129816B2", "about": "“Ring-fused thiazolino 2-pyridones in combination with a drug against tuberculosis” (QURETECH BIO AB, priority 2017, dated 2021)", "data": [{"test_system": "Mycobacterium tuberculosis Erdman", "experiment": "Treatment of Mycobacterium tuberculosis Erdman liquid culture with Q203 in the absence or presence of Example 1 (CFU count and ODλ600)", "type": "cell-based", "conditions": "Sauton's media; Example 1 25 μM or Q203 0.4 μM alone; day 15; compared to DMSO control", "values": [{"smiles": "O=C(O)[C@@H]1CSc2c(C3CC3)c(Cc3cccc4ccccc34)cc(=O)n21", "note": "[Example 1, (3R)-7-Cyclopropyl-6-[(1-naphthyl)methyl]-4-oxo-1-thia-3a-aza-3-indancarboxylic acid]", "ODλ600 value (FIG. 3b)": "decrease the ODλ600 value considerably"}, {"smiles": "CCc1nc2ccc(Cl)cn2c1C(=O)NCc1ccc(N2CCC(c3ccc(OC(F)(F)F)cc3)CC2)cc1", "note": "[Example Q203, 6-chloro-2-ethyl-N-[(4-{4-[4-(trifluoromethoxy)phenyl]piperidin-1-yl}phenyl)methyl]imidazo[1,2-a]pyridine-3-carboxamide, reference compound]", "ODλ600 value (FIG. 3b)": "decrease the ODλ600 value considerably"}]}, {"test_system": "Mtb", "experiment": "Microplate Alamar Blue Assay (MABA)", "type": "cell-based", "conditions": "Mycobacterium tuberculosis", "experimental": "The IC50 value was measured for the compounds 55-65. The measurement was made in accordance with the Microplate Alamar Blue Assay (MABA) as described by Franzblau, S. G. et al in Tuberculosis (Edinb). 92, 453-88 (2012: The MABA utilizes the dye resazurin, which is dark blue and nonfluorescent in its oxidized form but becomes pink and fluorescent when reduced to resorufin as a result of cellular metabolism. The MABA is commonly used to evaluate the efficacy of compounds in restraining Mtb growth, but also serves as an assay for aerobic respiration. The degree of the color change was monitored and quantified, and performing this assay with a range of compound concentrations allowed for calculating IC50 values for compounds. The IC50 value is defined as the concentration of the compound that inhibits the MABA color change by 50%.", "units": {"IC50": "µM"}, "values": [{"smiles": "O=C(O)C1CSc2c(C3CC3)c(-c3nc4ccccc4o3)cc(=O)n21", "note": "(stereo not shown) [Example 55, 1H-imidazol-1-ium 7-(benzo[d]oxazol-2-yl)-8-cyclopropyl-5-oxo-3,5-dihydro-2H-thiazolo[3,2-a]pyridine-3-carboxylate]", "IC50": 39.1}, {"smiles": "O=C(O)C1CSc2c(C3CC3)c(-c3cc(-c4cccc5ccccc45)no3)cc(=O)n21", "note": "(stereo not shown) [Example 56, 1H-imidazol-1-ium 8-cyclopropyl-7-(3-(naphthalen-1-yl)isoxazol-5-yl)-5-oxo-3,5-dihydro-2H-thiazolo[3,2-a]pyridine-3-carboxylate]", "IC50": 2.53}, {"smiles": "O=C(O)C1CSc2c(C3CC3)c(-c3cc(-c4cccc(C(F)(F)F)c4)no3)cc(=O)n21", "note": "(stereo not shown) [Example 57, 1H-imidazol-1-ium 8-cyclopropyl-5-oxo-7-(3-(3-(trifluoromethyl)phenyl)isoxazol-5-yl)-3,5-dihydro-2H-thiazolo[3,2-a]pyridine-3-carboxylate]", "IC50": 2.53}, {"smiles": "O=C(O)C1CSc2c(C3CC3)c(-c3cc(-c4cccs4)no3)cc(=O)n21", "note": "(stereo not shown) [Example 58, 1H-imidazol-1-ium 8-cyclopropyl-5-oxo-7-(3-(thiophen-2-yl)isoxazol-5-yl)-3,5-dihydro-2H-thiazolo[3,2-a]pyridine-3-carboxylate]", "IC50": 28.9}, {"smiles": "O=C(O)C1CSc2c(C3CC3)c(-c3cc(-c4ccccc4)no3)cc(=O)n21", "note": "(stereo not shown) [Example 59, 1H-imidazol-1-ium 8-cyclopropyl-5-oxo-7-(3-phenylisoxazol-5-yl)-3,5-dihydro-2H-thiazolo[3,2-a]pyridine-3-carboxylate]", "IC50": 15.6}, {"smiles": "O=C(O)C1CSc2c(-c3cc(-c4ccccc4)no3)c(Cc3cccc4ccccc34)c(Br)c(=O)n21", "note": "(stereo not shown) [Example 60, 1H-imidazol-1-ium 6-bromo-7-(naphthalen-1-ylmethyl)-5-oxo-8-(3-phenylisoxazol-5-yl)-3,5-dihydro-2H-thiazolo[3,2-a]pyridine-3-carboxylate]", "IC50": 4.51}, {"smiles": "O=C(O)C1CSc2c(C3CC(c4ccccc4)=NO3)c(Cc3cccc4ccccc34)cc(=O)n21", "note": "(stereo not shown) [Example 61, 1H-imidazol-1-ium 7-(naphthalen-1-ylmethyl)-5-oxo-8-(3-phenyl-4,5-dihydroisoxazol-5-yl)-3,5-dihydro-2H-thiazolo[3,2-a]pyridine-3-carboxylate]", "IC50": 82.7}, {"smiles": "C#Cc1c(Cc2cccc3ccccc23)cc(=O)n2c1SCC2C(=O)O", "note": "(stereo not shown) [Example 62, 1H-imidazol-1-ium 8-ethynyl-7-(naphthalen-1-ylmethyl)-5-oxo-3,5-dihydro-2H-thiazolo[3,2-a]pyridine-3-carboxylate]", "IC50": 53.5}, {"smiles": "O=C(O)C1CSc2c(-c3cc(-c4ccccc4)no3)c(Cc3cccc4ccccc34)cc(=O)n21", "note": "(stereo not shown) [Example 63, 1H-imidazol-1-ium 7-(naphthalen-1-ylmethyl)-5-oxo-8-(3-phenylisoxazol-5-yl)-3,5-dihydro-2H-thiazolo[3,2-a]pyridine-3-carboxylate]", "IC50": 12.7}, {"smiles": "O=C(O)C1CSc2c(-c3cc(-c4cccc5ccccc45)no3)c(Cc3cccc4ccccc34)cc(=O)n21", "note": "(stereo not shown) [Example 64, 1H-imidazol-1-ium 8-(3-(naphthalen-1-yl)isoxazol-5-yl)-7-(naphthalen-1-ylmethyl)-5-oxo-3,5-dihydro-2H-thiazolo[3,2-a]pyridine-3-carboxylate]", "IC50": 14.4}, {"smiles": "O=C(O)C1CSc2c(C3CC3)c(Cc3cccc4ccccc34)cc(=O)n21", "note": "(stereo not shown) [Example 65, 1H-imidazol-1-ium 8-cyclopropyl-7-(naphthalen-1-ylmethyl)-5-oxo-3,5-dihydro-2H-thiazolo[3,2-a]pyridine-3-carboxylate]", "IC50": 8.47}]}]}
